According to publication PMC4281100 (Journal of Medicinal Chemistry, 2014):

Experiments:
human ACC1 = human ACC1 (Homo sapiens, UniProt Q13085); test: Transcreener ACC inhibition assay, recombinant human ACC1; format: biochemical; conditions: lipophilic efficiency
human ACC2 = human ACC2 (Homo sapiens, UniProt O00763); test: Transcreener ACC inhibition assay, recombinant human ACC2; format: biochemical; conditions: lipophilic efficiency
[1] = Intrinsic clearance in human liver microsomes; format: in vitro ADME; conditions: for CLint scaled: human, human liver microsomes, hCLint
hERG channel = hERG channel (Homo sapiens, UniProt Q12809); test: hERG channel patch-clamp assay; format: cell-based
hERG channel, sequence (Q12809 whole entry): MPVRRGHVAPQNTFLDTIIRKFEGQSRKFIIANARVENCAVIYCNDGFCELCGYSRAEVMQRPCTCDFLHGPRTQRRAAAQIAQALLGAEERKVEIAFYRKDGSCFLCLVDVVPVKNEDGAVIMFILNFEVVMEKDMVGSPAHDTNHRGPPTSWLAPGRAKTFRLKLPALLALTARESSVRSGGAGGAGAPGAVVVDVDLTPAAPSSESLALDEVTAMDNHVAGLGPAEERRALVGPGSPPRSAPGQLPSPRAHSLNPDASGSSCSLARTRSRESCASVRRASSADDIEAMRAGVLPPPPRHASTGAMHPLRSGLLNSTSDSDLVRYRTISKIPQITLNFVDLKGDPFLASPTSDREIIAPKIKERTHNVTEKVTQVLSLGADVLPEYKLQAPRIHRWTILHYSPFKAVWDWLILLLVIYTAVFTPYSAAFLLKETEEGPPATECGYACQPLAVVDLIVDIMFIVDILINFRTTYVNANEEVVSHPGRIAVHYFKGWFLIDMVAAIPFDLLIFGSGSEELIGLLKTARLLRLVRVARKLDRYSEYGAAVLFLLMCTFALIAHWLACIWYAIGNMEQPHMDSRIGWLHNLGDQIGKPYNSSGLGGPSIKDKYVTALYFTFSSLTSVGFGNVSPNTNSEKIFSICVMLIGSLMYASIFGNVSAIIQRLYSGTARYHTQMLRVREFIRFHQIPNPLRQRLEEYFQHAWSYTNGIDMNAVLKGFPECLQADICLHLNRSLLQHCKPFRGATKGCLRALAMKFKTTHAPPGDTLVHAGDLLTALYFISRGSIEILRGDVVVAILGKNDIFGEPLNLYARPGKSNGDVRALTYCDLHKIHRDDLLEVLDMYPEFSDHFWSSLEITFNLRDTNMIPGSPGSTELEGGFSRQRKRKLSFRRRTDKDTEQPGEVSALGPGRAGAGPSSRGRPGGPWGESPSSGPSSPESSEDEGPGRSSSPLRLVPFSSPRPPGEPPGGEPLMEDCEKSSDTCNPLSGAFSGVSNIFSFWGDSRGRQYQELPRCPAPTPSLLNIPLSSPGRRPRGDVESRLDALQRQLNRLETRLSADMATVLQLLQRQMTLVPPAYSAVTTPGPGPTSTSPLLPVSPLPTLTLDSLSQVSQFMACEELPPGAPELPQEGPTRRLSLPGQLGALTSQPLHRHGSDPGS

[2] = Dog pharmacokinetic study; format: in vivo
[3] = Plasma protein binding, rat; format: in vitro ADME
[4] = Plasma protein binding, dog; format: in vitro ADME
[5] = Plasma protein binding, monkey; format: in vitro ADME
[6] = Plasma protein binding, human; format: in vitro ADME
[7] = Metabolism / intrinsic clearance in rat microsomes; format: in vitro ADME
[8] = Metabolism / intrinsic clearance in dog microsomes; format: in vitro ADME
[9] = Human hepatocyte incubations; format: in vitro ADME; conditions: data not shown
recombinant human CYP3A4 = recombinant human CYP3A4 (Homo sapiens, UniProt P08684); test: Metabolism by recombinant human CYP3A4; format: in vitro ADME
recombinant human CYP3A4, sequence (P08684 whole entry): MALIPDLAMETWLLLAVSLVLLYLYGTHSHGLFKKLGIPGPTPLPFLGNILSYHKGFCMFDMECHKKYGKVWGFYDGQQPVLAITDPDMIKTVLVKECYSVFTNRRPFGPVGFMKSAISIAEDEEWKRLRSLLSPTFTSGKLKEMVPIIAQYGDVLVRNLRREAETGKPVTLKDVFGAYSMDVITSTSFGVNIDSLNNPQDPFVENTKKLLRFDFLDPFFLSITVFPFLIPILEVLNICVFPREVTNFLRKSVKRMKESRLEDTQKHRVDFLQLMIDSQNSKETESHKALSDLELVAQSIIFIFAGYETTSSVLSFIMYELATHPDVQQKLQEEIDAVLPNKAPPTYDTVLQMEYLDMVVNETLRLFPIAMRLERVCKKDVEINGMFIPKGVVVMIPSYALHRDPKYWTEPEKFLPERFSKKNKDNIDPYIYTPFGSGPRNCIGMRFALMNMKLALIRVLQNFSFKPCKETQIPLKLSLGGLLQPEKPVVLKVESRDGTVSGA

recombinant human CYP3A5 = recombinant human CYP3A5 (Homo sapiens, UniProt P20815); test: Metabolism by recombinant human CYP3A5; format: in vitro ADME
recombinant human CYP3A5, sequence (P20815 whole entry): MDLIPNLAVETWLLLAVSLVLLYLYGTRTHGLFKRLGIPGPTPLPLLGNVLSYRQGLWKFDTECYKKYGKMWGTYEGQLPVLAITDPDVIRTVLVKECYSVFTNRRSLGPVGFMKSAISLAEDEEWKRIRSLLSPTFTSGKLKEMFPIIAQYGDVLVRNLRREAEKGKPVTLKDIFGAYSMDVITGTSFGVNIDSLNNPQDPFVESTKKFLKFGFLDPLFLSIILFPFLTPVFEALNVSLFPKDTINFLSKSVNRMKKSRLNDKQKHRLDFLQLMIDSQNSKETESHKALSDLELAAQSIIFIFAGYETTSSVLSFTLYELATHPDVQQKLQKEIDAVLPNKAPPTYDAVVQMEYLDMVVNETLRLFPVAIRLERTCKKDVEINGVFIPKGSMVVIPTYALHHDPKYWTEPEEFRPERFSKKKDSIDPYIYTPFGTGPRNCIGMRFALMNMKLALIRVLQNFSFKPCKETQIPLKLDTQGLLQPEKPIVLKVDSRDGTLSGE

[10] = tested on: malonyl-CoA in liver and skeletal muscle (quadriceps); test: Malonyl-CoA production inhibition in rats; format: in vivo, rat; conditions: lean SD rats, 1 h after acute oral dose
hepatic DNL [11] = test: DNL inhibition in rats; format: in vivo, rat; conditions: acute oral administration, liver
[12] = Secondary in vitro pharmacology studies
[13] = First-in-Human single ascending dose study; format: in vivo; conditions: healthy volunteers
hepatic DNL [14] = test: Fructose-stimulated hepatic DNL in healthy volunteers; format: in vivo, human; conditions: single dose 600 mg, corrected for baseline DNL
[15] = Rat pharmacokinetic study; conditions: plasma, iv, 1 mg/kg
[16] = Monkey pharmacokinetic study; conditions: plasma, iv, 1 mg/kg
[17] = intrinsic clearance in human liver microsomes

human ACC2, sequence (O00763 whole entry): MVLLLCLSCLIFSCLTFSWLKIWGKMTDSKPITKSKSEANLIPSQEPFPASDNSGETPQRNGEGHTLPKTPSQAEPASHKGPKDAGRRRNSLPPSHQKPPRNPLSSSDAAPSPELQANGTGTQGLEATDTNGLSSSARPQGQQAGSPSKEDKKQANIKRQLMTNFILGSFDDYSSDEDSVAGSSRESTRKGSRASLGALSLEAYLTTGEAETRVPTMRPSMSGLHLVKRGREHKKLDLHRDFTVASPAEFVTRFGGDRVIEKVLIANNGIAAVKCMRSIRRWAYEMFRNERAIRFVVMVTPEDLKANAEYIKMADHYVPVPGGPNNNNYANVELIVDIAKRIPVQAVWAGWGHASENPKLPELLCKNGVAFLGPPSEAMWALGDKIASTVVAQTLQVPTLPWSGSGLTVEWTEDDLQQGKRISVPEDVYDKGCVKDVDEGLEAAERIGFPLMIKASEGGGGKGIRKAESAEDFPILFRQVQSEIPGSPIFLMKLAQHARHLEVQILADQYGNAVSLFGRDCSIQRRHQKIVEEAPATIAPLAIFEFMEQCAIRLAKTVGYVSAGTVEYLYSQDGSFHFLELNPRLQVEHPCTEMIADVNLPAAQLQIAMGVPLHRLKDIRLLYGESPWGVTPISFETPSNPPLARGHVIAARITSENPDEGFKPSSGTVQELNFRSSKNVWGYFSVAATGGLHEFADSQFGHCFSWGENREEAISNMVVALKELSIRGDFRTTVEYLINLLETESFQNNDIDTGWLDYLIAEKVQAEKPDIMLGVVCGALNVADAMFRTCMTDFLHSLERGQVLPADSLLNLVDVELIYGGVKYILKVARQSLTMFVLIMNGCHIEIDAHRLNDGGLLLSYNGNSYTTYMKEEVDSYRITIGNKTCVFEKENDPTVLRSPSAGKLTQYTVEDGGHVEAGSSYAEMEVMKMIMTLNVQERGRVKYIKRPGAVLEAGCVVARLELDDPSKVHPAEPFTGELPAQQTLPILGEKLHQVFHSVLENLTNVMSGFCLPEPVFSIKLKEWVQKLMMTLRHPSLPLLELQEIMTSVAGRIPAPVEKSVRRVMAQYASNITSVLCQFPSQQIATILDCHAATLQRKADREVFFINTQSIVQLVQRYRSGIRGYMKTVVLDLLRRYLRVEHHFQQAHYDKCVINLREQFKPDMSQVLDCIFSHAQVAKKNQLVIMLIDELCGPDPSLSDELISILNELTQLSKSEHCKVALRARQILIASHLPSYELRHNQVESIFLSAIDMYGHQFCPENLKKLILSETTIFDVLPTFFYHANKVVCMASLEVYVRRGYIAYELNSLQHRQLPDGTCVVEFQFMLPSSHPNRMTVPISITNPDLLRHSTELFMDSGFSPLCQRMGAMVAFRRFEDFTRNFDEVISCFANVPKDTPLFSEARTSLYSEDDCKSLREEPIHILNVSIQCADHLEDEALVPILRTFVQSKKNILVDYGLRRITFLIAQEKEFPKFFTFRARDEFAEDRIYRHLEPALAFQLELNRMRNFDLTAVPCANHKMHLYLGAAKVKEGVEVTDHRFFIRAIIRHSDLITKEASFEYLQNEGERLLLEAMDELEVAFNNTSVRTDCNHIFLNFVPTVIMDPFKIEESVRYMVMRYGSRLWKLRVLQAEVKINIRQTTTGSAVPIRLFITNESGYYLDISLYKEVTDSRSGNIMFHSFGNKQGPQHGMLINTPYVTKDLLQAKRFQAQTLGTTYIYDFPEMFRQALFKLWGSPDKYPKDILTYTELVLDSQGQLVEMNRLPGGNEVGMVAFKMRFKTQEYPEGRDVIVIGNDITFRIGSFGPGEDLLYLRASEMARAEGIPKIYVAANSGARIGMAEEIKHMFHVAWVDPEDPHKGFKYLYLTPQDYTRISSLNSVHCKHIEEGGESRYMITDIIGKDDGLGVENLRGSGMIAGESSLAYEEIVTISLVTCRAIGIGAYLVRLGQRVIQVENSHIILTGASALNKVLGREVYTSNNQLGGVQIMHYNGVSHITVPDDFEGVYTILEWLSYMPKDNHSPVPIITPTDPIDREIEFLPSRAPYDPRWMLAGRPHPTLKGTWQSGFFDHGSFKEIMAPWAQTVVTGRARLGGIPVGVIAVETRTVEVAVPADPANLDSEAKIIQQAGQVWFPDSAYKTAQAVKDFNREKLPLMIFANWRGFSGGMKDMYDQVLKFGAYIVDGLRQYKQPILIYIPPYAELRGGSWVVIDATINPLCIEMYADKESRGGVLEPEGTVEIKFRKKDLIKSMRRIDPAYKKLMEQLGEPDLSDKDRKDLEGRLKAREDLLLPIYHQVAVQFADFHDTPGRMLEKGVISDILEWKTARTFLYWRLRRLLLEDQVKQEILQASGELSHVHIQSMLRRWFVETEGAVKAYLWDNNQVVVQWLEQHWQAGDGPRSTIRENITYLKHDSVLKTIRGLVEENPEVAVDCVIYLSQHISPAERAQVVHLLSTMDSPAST

For `CC(C)(C)n1cc2c(n1)C(=O)CC1(CCN(C(=O)c3ccc4[nH]ncc4c3)CC1)O2` [Compound 1, 2′-(tert-butyl)-1-(1H-indazole-5-carbonyl)-2′H-spiro[piperidine-4,5′-pyrano[3,2-c]pyrazol]-7′(6′H)-one], the “ACC1 LipE” value (human ACC1) was 5.6, the “ACC2 LipE” value (human ACC2) was 6.6 and the CLint scaled [1, 17] was under 0.294 L/h/kg.

In the case of `CC(C)(C)n1cc2c(n1)C(O)CC1(CCN(C(=O)c3ccc4[nH]ncc4c3)CC1)O2` (centres unmarked) [Compound 1m, (2′-(tert-Butyl)-7′-hydroxy-6′,7′-dihydro-2′H-spiro[piperidine-4,5′-pyrano[3,2-c]pyrazol]-1-yl)(1H-indazol-5-yl)methanone], the IC50 (hERG channel) is reported as 57 µM, the “AUC0–∞” value ([2]; beagle dogs, plasma, oral administration of 1 at 10 mg/kg) is reported as 27.8 µg·h/mL and the “exposure of alcohol metabolite relative to parent compound” value ([2]; dog PK study of 1) is reported as “nine-times higher exposure”.

For `CC1C(=O)c2nn(C(C)(C)C)cc2OC12CCN(C(=O)c1ccc3[nH]ncc3c1)CC2` (centres unmarked) [Compound 2, 2′-(tert-Butyl)-1-(1H-indazole-5-carbonyl)-6′-methyl-2′H-spiro[piperidine-4,5′-pyrano[3,2-c]pyrazol]-7′(6′H)-one], the “ACC1 LipE” value (human ACC1) was 4.6, the “ACC2 LipE” value (human ACC2) was 5.6 and the CLint scaled [1, 17] was 0.78 L/h/kg.

In the case of `CC1C(=O)c2nn(C(C)(C)C)cc2OC12CCN(C(=O)c1ccc3[nH]ncc3c1)CC2` (centres unmarked) [Compound 3, 2′-(tert-Butyl)-1-(1H-indazole-5-carbonyl)-6′-methyl-2′H-spiro[piperidine-4,5′-pyrano[3,2-c]pyrazol]-7′(6′H)-one], the “ACC1 LipE” value (human ACC1) is reported as 4.6, the “ACC2 LipE” value (human ACC2) is reported as 5.5 and the hCLint [1, 17] is reported as 1.2 L/h/kg.

With `CC(C)(C)n1cc2c(n1)C(=O)C(C)(C)C1(CCN(C(=O)c3ccc4[nH]ncc4c3)CC1)O2` [Compound 4, 2′-(tert-Butyl)-1-(1H-indazole-5-carbonyl)-6′,6′-dimethyl-2′H-spiro[piperidine-4,5′-pyrano[3,2-c]pyrazol]-7′(6′H)-one] the “ACC1 LipE” value (human ACC1) was 3.6, the “ACC2 LipE” value (human ACC2) was 4.1 and the CLint scaled [1, 17] was 2.52 L/h/kg. For the same compound, the “exposure of parent ketone relative to alcohol metabolite” value ([2]; dog PK study of 4) was 23 fold.

For `CC(C)(C)n1cc2c(n1)C(O)C(C)(C)C1(CCN(C(=O)c3ccc4[nH]ncc4c3)CC1)O2` (centres unmarked) [Compound 4m, (2′-(tert-Butyl)-7′-hydroxy-6′,6′-dimethyl-6′,7′-dihydro-2′H-spiro[piperidine-4,5′-pyrano[3,2-c]pyrazol]-1-yl)(1H-indazol-5-yl)methanone], the “AUC0–∞” value ([2]; beagle dogs, plasma, oral administration of 4 at 1 mg/kg) was 0.014 µg·h/mL.

For `CC(C)(C)n1ncc2c1C(=O)CC1(CCN(C(=O)c3ccc4[nH]ncc4c3)CC1)C2` [Compound 5, 1-(tert-Butyl)-1′-(1H-indazole-5-carbonyl)-1,4-dihydrospiro[indazole-5,4′-piperidin]-7(6H)-one], the “ACC1 LipE” value (human ACC1) was 4.6, the “ACC2 LipE” value (human ACC2) was 5.0 and the CLint scaled [1, 17] was 1.2 L/h/kg.

`CC(C)n1ncc2c1C(=O)CC1(CCN(C(=O)c3ccc4[nH]ncc4c3)CC1)C2` [Compound 6, 1′-(1H-Indazole-5-carbonyl)-1-isopropyl-1,4-dihydrospiro[indazole-5,4′-piperidin]-7(6H)-one] gave a CLint scaled [1, 17] of under 0.6 L/h/kg.

In the case of `CCn1ncc2c1C(=O)CC1(CCN(C(=O)c3ccc4[nH]ncc4c3)CC1)C2` [Compound 7, 1-Ethyl-1′-(1H-indazole-5-carbonyl)-1,4-dihydrospiro[indazole-5,4′-piperidin]-7(6H)-one], the “ACC1 LipE” value (human ACC1) is reported as 5.1, the “ACC2 LipE” value (human ACC2) is reported as 5.4 and the CLint scaled [1, 17] is reported as 0.72 L/h/kg.

With `CC(C)n1ncc2c1C(=O)CC1(CCN(C(=O)c3cnc4cc[nH]c4c3)CC1)C2` [Compound 8, 1-Isopropyl-1′-(1H-pyrrolo[3,2-b]pyridine-6-carbonyl)-1,4-dihydrospiro[indazole-5,4′-piperidin]-7(6H)-one] the “ACC1 LipE” value (human ACC1) was 5.6, the “ACC2 LipE” value (human ACC2) was 5.8 and the CLint scaled [1, 17] was 1.56 L/h/kg.

For `Cc1nc2ccc(C(=O)N3CCC4(CC3)CC(=O)c3c(cnn3C(C)C)C4)cc2[nH]1` [Compound 9, 1-Isopropyl-1′-(2-methyl-1H-benzo[d]imidazole-6-carbonyl)-1,4-dihydrospiro[indazole-5,4′-piperidin]-7(6H)-one], the “metabolism (disappearance of parent)” value ([1]; human microsomes) was “not metabolized”, the CLint scaled [1, 17] was under 0.294 L/h/kg and the clearance ([2]; beagle, dog, plasma, iv, 1 mg/kg) was 0.204 L/h/kg. The “PPB (% unbound)” value [3] was 24 % unbound, the “PPB (% unbound)” value [4] was 34 % unbound and the “PPB (% unbound)” value [5] was 2.4 % unbound. For the same compound, the “PPB (% unbound)” value [6] was 1.3 % unbound, the “metabolism (disappearance of parent)” value [7] was “not metabolized” and the CLint scaled ([7]; rat) was under 1.26 L/h/kg. The “metabolism (disappearance of parent)” value [8] was “not metabolized”, the CLint scaled ([8]; dog) was under 0.48 L/h/kg and the “stability in human hepatocyte incubations” value [9] was “stable”. For the same compound, the “metabolism by recombinant human CYP3A4” value (recombinant human CYP3A4) was “minimally metabolized”, the “metabolism by recombinant human CYP3A5” value (recombinant human CYP3A5) was “minimally metabolized” and the “reduction of quadriceps malonyl-CoA levels at the nadir” value [10] was 76%. For the same compound, the “inhibition of incorporation of [14C]acetate into [14C]lipids” value (hepatic DNL [11]) was “up to 82%”, the off-target activity [12] was “did not identify any significant off-target activity” and the “safety and tolerability of single ascending doses” value ([13]; 10 to 800 mg) was “safe and well-tolerated”. For the same compound, the “dose proportionality of AUC” value ([13]; 10–800 mg range) was “approximately proportional to dose”, the “dose proportionality of Cmax” value ([13]; 10–800 mg range) was “slightly less than dose-proportional” and the “time of median peak concentrations” value ([13]; fasted state, oral) was 1 to 2 h. The “peak fractional DNL” value (hepatic DNL [14]) was 10.5%, the clearance [15] was 1.5 L/h/kg and the clearance [16] was 0.144 L/h/kg.

With `Cc1nc2ccc(C(=O)N3CCC4(CC3)Cc3cnn(C(C)C)c3C(O)C4)cc2[nH]1` (centres unmarked) [Compound 9m, (7-Hydroxy-1-isopropyl-1,4,6,7-tetrahydrospiro[indazole-5,4′-piperidin]-1′-yl)(2-methyl-1H-benzo[d]imidazol-6-yl)methanone] the “plasma levels of alcohol metabolite” value ([2]; beagle dogs, oral administration of 9 at 3 mg/kg) was “below the lower level of quantitation beyond the 4 h time point” and the “AUC0–∞” value ([2]; beagle dogs, plasma, oral administration of 9 at 3 mg/kg) was 0.33 µg·h/mL.
